From article PMC12137875 (Nature Communications, 2025)
Where two headings read alike, the source gives them in different places.

Assays:
hURAT1 = target: T1, hURAT1 (Homo sapiens, UniProt Q96S37); format: cell-based; details: for KT urate / Vmax: fit of the data set with this inhibitor, 95% CI; for Mode of inhibition of [14C]-urate uptake: competitive versus non-competitive fits
T1 sequence (Q96S37 1-553): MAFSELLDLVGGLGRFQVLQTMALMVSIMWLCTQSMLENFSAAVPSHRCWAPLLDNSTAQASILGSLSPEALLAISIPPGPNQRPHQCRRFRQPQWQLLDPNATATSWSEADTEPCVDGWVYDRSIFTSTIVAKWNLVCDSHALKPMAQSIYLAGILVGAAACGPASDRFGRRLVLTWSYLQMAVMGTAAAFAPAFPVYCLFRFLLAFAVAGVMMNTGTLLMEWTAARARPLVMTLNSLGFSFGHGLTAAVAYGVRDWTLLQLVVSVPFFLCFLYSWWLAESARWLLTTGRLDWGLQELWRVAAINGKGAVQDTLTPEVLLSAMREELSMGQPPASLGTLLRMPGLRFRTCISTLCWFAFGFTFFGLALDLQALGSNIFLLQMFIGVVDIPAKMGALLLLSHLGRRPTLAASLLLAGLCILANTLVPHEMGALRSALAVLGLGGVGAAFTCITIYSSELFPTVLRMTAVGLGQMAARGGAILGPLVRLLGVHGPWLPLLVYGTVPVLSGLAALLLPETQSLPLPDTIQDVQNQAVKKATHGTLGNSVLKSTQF

URAT1CS = format: cell-based; details: HEK293T cells expressing hURAT1 versus URAT1CS

Compound | KT urate (hURAT1; Competitive model) | Vmax (hURAT1; Competitive model) | KT urate (hURAT1; Non-competitive model) | Vmax (hURAT1; Non-competitive model) | Mode of inhibition of [14C]-urate uptake (hURAT1) | Inhibitor binding to URAT1CS as judged from IC50 (URAT1CS)
O=C(O)CSc1nnc(Br)n1-c1ccc(C2CC2)c2ccccc12 [LESU, lesinurad] | 162.8 [126.4–210.1] µM | 3625 [3335–3955] pmol min^−1 mg^−1 | 175.1 [148.8–206.5] µM | 3725 [3522–3947] pmol min^−1 mg^−1 | non-competitively | 
CCc1oc2ccccc2c1C(=O)c1cc(Br)c(O)c(Br)c1 [BBR, benzbromarone] | 26.08 [11.29–48.59] µM | 1591 [1355–1846] pmol min^−1 mg^−1 | 32.4 [20.7–47.9] µM | 1700 [1530–1881] pmol min^−1 mg^−1 | non-competitively | high affinity
